Source: ChEMBL document CHEMBL1201862, “PubChem BioAssay data set” (2004)
Activity calls are given as the source filed them.

Columns and labels:
[1] = biological target: T1, Eukaryotic translation initiation factor 2-alpha kinase 3 (Homo sapiens, UniProt Q9NZJ5); test: Dose response cell-based high-throughput screening assay to measure PERK inhibition. [Related pubchem assays: 1416 ]; format: functional
T1 sequence (Q9NZJ5 whole entry): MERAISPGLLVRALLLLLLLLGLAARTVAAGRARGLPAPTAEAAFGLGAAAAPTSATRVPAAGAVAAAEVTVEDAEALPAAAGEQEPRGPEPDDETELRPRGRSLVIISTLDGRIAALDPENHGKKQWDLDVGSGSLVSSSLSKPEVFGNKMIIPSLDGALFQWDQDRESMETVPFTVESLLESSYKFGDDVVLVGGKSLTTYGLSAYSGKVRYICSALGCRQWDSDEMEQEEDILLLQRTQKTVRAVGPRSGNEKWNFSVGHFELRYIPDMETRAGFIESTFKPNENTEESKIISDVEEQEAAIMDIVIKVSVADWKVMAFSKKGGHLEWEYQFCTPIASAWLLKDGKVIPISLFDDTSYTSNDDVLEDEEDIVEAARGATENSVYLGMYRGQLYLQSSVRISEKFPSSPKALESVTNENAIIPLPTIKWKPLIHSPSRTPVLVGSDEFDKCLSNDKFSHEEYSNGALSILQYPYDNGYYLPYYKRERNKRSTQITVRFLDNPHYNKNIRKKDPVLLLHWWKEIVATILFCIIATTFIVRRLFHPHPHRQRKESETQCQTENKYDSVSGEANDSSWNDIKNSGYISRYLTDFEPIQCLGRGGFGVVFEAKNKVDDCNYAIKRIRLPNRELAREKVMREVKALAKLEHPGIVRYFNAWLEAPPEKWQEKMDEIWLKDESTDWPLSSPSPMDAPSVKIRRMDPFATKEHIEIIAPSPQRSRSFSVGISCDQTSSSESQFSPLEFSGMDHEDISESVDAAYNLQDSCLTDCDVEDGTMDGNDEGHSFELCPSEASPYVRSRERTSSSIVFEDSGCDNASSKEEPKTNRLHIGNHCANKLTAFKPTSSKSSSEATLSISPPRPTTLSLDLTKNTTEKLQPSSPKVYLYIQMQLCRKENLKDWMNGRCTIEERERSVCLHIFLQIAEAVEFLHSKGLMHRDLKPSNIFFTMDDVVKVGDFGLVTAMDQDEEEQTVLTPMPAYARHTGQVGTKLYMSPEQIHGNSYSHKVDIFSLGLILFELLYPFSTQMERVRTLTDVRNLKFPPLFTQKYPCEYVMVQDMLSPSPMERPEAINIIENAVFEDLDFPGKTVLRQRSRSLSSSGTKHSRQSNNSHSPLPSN

[2] = biological target: T1, Eukaryotic translation initiation factor 2-alpha kinase 3; test: Counterscreen assay for PERK inhibitors: Dose response cell-based high throughput screening assay to measure inhibition of PERK at 6 hours. [Related pubchem assays: 1522, 1416 ]; format: functional
[3] = biological target: Glyceraldehyde-3-phosphate dehydrogenase (Homo sapiens, UniProt P04406)
Glyceraldehyde-3-phosphate dehydrogenase, sequence (P04406 whole entry): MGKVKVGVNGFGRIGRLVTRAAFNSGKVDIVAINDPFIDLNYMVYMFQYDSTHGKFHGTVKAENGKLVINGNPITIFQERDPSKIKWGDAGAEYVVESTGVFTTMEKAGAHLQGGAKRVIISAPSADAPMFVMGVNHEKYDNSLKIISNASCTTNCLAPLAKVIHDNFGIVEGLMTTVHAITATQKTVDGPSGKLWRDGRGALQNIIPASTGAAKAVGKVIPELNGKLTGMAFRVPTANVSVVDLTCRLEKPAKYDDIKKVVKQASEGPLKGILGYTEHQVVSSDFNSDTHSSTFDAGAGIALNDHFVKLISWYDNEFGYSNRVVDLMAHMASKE

[4] = biological target: Alkaline phosphatase, placental type (Homo sapiens, UniProt P05187); test: human placental alkaline phosphatase inhibition – biochemical, luminescence, confirmation (AID 1512); format: functional
Alkaline phosphatase, placental type, sequence (P05187 whole entry): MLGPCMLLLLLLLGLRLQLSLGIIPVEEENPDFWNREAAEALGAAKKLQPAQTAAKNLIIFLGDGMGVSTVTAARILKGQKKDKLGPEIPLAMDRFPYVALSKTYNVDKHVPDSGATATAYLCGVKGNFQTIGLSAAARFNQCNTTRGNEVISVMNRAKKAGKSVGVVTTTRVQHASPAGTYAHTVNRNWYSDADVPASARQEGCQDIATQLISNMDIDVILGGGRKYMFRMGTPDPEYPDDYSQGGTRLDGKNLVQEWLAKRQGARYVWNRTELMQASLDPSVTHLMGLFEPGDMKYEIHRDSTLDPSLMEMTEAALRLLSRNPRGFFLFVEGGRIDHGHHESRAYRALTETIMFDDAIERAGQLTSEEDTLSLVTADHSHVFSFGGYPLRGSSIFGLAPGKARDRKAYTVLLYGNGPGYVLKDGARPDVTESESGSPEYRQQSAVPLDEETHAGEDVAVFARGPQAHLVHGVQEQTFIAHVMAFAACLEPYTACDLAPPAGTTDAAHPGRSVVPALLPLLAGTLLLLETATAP

[5] = biological target: T2, Alkaline phosphatase, tissue-nonspecific isozyme (Homo sapiens, UniProt P05186); test: potency against alkaline phosphatase TNAP – biochemical, luminescent, dose response, SAR follow-up (AID 1056)
T2 sequence (P05186 whole entry): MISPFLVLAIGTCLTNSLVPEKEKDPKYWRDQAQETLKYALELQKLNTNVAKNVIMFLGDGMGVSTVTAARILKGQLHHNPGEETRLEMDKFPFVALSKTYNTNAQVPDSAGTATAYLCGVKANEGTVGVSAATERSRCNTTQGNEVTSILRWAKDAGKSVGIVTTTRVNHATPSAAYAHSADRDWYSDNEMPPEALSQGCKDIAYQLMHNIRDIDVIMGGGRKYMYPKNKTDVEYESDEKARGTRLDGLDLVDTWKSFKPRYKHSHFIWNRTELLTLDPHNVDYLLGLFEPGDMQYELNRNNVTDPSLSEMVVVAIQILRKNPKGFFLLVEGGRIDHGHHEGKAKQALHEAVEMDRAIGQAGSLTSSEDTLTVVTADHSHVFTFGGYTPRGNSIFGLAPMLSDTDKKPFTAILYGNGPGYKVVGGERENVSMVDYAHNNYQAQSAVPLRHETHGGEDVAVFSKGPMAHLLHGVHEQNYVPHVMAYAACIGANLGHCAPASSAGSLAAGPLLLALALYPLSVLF

[6] = luciferase reporter signal suppression in cells – H4 neuroglioma cells, luminescence, dose response (AID 1990); format: functional, cell-based
[7] = luciferase reporter signal reduction – luminescence, H4-C neuroglioblastoma cells, dose response (AID 2458); format: functional, cell-based;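 further: H4 neuroglioblastoma cells stably carrying a luciferase reporter gene fusion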
cells = format: functional, cell-based
[8] = Luminescence Cell-Based Dose Response HTS to Identify Inhibitors of 5'UTR Stem-Loop Driven Prion Protein mRNA Translation in H4 Neuroglioblastoma Cells. [Related pubchem assays: 1827 (Project Summary), 1813 (Primary HTS)]; format: functional
[9] = alpha-synuclein stem-loop luciferase translation blockers – H4 neuroglioma cells, luminescence, confirmation (AID 1988); format: functional, cell-based
[10] = alpha-synuclein stem-loop translation blockers – luminescence, H4 neuroglioblastoma cells, dose confirmation, confirmation (AID 2454); format: functional, cell-based;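 further: H4 neuroglioblastoma cells carrying an alpha-synuclein 5'UTR luciferase reporter; potency for inhibition of the luciferase signal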
[11] = biological target: T3, Microphthalmia-associated transcription factor (Homo sapiens, UniProt O75030); test: reducers of TRPM1 reporter luminescence, concentration series – cell-based, SK-MEL-5, cherry-picked, set 3, MITF inhibitor project, dose response (AID 493073); format: functional;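 further: SK-MEL-5 melanoma cells with luciferase driven by the MITF target TRPM1 promoter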
T3 sequence (O75030 whole entry): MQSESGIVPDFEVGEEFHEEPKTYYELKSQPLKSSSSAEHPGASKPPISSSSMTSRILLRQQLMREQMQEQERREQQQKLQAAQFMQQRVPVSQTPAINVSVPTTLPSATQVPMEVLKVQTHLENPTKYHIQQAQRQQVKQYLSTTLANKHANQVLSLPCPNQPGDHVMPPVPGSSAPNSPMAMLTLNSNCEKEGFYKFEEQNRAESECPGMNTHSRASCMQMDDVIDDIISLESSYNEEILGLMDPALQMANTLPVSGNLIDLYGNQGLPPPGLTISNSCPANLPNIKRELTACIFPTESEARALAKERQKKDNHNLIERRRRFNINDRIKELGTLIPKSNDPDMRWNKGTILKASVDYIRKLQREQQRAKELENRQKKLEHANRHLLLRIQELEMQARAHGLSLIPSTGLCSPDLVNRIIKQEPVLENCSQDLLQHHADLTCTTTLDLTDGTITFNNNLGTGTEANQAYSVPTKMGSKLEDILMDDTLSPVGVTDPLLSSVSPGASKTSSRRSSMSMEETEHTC

[12] = HEK-293T cell viability reduction – luminescence, B-cell screen hits, cytotoxicity control for BCR NF-kB inhibitor project, dose response (AID 489021); format: functional, cell-based;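 further: HEK-293T cells carrying an NF-kB luciferase reporter; cells exposed to compound for about 14 hours before viability readout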
A-375 [13] = test: MITF: Counter assay: A375 proliferation Measured in Cell-Based System Using Plate Reader - 2084-03_Inhibitor_Dose_DryPowder_Activity. [Related pubchem assays (depositor defined):AID488944]; format: functional; conditions: Homo sapiens
A-375 [14] = test: proliferation inhibition in MITF-low A375 cells – cell-based, cherry-pick samples, set 2, counter-screen for MITF modulator project, dose response (AID 540335); format: functional; conditions: Homo sapiens
[15] = biological target: Eukaryotic translation initiation factor 4E (Mus musculus, UniProt P63073); test: blockers of eIF4G binding by eIF4E – biochemical, TR-FRET, dose response (AID 855); format: functional;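 further: potency for disrupting eIF4E binding to eIF4GI seen as loss of FRET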
Eukaryotic translation initiation factor 4E, sequence (P63073 whole entry): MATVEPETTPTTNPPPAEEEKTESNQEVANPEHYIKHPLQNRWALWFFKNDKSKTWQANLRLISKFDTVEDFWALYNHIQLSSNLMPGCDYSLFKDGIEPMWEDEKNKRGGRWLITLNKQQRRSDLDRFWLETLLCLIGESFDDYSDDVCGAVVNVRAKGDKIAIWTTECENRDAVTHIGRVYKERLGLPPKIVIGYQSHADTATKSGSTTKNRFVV

[16] = biological target: T4, Voltage-gated N-type calcium channel alpha-1B subunit/Amyloid beta A4 precursor protein-binding family A member 1 (Homo sapiens, UniProt Q00975+Q02410); format: protein assay
T4 sequence (Q00975 whole entry): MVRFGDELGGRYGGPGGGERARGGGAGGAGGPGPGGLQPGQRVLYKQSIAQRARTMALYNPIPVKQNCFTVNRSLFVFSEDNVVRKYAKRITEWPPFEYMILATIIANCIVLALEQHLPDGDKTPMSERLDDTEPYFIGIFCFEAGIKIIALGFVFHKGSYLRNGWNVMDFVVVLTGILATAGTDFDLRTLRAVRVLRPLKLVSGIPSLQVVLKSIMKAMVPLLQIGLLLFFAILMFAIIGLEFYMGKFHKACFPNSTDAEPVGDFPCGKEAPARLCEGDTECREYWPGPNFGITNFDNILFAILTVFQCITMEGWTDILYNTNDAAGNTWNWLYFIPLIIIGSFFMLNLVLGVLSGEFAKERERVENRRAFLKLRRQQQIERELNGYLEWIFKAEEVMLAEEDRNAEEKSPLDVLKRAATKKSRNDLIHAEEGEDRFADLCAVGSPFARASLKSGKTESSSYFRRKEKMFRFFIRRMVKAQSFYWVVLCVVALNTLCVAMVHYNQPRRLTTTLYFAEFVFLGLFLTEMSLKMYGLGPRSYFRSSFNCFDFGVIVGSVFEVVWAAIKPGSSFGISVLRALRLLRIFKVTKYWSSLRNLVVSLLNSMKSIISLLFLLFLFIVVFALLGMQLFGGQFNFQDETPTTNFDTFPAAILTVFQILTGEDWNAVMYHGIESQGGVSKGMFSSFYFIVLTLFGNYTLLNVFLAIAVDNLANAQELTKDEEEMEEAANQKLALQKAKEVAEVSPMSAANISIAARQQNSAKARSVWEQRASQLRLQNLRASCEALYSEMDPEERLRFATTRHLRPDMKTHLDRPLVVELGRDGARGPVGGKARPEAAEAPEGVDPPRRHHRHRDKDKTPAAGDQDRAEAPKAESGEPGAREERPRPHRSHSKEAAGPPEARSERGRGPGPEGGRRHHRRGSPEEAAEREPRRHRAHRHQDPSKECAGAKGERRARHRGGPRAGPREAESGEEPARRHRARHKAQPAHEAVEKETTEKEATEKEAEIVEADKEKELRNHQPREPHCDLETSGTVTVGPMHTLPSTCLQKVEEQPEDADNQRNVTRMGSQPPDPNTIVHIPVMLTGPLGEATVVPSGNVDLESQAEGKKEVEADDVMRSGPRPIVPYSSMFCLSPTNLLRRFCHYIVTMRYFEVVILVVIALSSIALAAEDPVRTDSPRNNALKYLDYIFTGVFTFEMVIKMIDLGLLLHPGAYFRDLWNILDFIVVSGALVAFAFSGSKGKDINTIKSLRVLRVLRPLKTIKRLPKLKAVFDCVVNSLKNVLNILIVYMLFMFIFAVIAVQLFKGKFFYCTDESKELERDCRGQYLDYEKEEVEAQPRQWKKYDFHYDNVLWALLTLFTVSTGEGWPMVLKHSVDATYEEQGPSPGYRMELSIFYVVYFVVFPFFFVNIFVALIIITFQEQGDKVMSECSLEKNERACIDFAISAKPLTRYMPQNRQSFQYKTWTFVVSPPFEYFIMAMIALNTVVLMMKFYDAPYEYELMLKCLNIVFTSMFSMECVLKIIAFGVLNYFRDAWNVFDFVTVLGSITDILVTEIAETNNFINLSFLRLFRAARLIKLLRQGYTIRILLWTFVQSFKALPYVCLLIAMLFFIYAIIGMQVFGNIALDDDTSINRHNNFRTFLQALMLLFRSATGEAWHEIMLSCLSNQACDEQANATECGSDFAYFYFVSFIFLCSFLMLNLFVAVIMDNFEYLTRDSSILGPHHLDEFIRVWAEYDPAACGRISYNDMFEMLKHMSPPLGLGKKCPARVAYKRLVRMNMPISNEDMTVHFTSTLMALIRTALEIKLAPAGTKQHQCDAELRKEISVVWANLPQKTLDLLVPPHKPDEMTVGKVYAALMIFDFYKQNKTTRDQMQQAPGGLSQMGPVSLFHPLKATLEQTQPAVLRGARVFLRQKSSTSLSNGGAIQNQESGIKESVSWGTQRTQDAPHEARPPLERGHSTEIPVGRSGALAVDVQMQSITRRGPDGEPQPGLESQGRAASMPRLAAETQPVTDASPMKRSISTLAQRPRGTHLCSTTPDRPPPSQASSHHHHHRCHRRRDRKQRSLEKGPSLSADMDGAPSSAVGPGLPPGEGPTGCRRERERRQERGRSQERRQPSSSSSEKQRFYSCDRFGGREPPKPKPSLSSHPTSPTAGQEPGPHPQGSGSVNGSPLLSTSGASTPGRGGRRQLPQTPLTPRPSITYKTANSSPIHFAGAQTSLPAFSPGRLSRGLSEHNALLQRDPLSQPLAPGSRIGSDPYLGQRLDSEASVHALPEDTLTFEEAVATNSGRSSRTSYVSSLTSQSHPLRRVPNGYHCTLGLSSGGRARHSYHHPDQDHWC
T4 sequence (Q02410 whole entry): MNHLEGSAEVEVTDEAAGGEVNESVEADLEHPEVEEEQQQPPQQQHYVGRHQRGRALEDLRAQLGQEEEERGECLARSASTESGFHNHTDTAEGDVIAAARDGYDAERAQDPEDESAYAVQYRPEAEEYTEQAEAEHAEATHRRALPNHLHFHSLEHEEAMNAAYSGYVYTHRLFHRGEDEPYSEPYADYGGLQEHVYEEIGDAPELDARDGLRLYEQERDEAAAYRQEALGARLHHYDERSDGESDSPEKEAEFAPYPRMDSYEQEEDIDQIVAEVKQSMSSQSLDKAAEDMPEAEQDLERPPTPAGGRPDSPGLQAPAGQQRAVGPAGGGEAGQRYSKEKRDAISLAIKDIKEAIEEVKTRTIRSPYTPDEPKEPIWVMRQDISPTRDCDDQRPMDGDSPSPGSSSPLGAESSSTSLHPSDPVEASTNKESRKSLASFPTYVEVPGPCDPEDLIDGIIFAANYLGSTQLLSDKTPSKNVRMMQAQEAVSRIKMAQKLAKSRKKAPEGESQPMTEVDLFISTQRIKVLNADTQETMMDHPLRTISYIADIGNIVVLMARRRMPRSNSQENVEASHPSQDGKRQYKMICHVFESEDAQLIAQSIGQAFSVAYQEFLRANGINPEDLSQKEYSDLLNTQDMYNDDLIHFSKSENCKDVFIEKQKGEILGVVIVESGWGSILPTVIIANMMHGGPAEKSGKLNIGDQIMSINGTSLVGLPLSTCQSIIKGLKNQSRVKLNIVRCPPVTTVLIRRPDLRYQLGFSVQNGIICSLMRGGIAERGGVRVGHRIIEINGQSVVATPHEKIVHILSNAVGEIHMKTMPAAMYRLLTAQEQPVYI

[17] = biological target: T4, Voltage-gated N-type calcium channel alpha-1B subunit/Amyloid beta A4 precursor protein-binding family A member 1; format: protein assay; remark: listed apart in the source
Estrogen receptor beta [18] = biological target: T5, Estrogen receptor beta (Homo sapiens, UniProt Q92731);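 further: recombinant ER-beta bound to coactivator SRC1 peptide in presence of estradiol agonist; inhibitors block coactivator peptide binding and lower the FRET signal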
T5 sequence (Q92731 whole entry): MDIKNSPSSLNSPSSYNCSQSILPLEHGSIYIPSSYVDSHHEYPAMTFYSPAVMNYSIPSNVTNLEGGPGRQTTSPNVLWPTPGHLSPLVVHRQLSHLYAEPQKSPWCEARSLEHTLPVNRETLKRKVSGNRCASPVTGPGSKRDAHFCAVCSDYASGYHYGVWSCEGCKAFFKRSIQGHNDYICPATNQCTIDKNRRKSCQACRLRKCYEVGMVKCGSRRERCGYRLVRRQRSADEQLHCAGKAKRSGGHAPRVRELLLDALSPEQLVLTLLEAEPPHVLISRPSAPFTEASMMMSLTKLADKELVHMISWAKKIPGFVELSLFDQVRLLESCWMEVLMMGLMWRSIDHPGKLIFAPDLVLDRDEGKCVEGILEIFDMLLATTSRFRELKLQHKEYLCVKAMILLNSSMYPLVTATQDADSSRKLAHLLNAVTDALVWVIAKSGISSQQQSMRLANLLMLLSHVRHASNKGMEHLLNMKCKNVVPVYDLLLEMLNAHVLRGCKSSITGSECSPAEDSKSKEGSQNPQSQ

Estrogen receptor beta [19] = biological target: T5, Estrogen receptor beta; test: blockers of SRC-3 recruitment to ERβ – biochemical, ELISA, streptavidin-HRP readout, orthogonal assay, confirmation (AID 1060)
HEK293 [20] = test: inhibition of NOD1-driven NF-kB reporter – cell-based, luminescence, uHTS, primary screen (AID 1578); format: functional; conditions: Homo sapiens
HEK293 [21] = test: cells; format: functional, cell-based; conditions: Homo sapiens
HEK293 [22] = test: cells; format: functional, cell-based; conditions: Homo sapiens; remark: listed apart in the source
[23] = biological target: Nucleotide-binding oligomerization domain-containing protein 2 (Homo sapiens, UniProt Q9HC29); test: inhibition of NOD2-driven NF-kB reporter – cell-based, luminescence, uHTS, HEK293 (AID 1566); format: functional
HEK293 [24] = test: NOD2 signaling inhibitors in MDP-stimulated cells, cell-based, uHTS, luminescence (AID 2001); format: functional; conditions: Homo sapiens
HEK293 [25] = test: cells; format: functional, cell-based; conditions: Homo sapiens; remark: listed apart in the source
Vero [26] = test: cells; format: functional, cell-based; conditions: Chlorocebus sabaeus
Vero [27] = test: cells; format: functional; conditions: Chlorocebus sabaeus

COC(=O)C(NC(C)=O)(Nc1ccc(C)cn1)C(F)(F)F (stereo not given)
EC50 [1]: > 55.7 µM (not active) | EC50 [2]: > 55.7 µM (not active)

CC(C)c1nc(N)nn1-c1ccccc1
IC50 [3]: > 100 µM (not active) | IC50 [4]: > 100 µM (inactive) | IC50 [5]: > 100 µM (inactive)

CC(C)(C)c1ccc(-c2cc(N)[nH]n2)cc1
EC50 [6]: < 0.1 µM (active) | EC50 [7]: 0.403 µM (active) | EC50 (cells): 1.34 µM (active) | EC50 [8]: 7.28 µM (active) | EC50 [9]: < 0.1 µM (active) | EC50 [10]: 0.677 µM (active) | AC50 [11]: 0.511 µM (active) | IC50 [12]: > 80 µM (inactive) | AC50 (A-375 [13]): > 35 µM (active) | AC50 (A-375 [14]): > 35 µM (active)

COc1ccc2c3c([nH]c2c1)C1CC2C(CC(O)C(OC)C2CO)CN1CC3 (stereo not given)
EC50 [1]: > 55.7 µM (not active) | EC50 [2]: > 55.7 µM (not active)

CC1CCCCN1C(=O)Cn1c(=O)n(-c2ccc(F)cc2)c(=O)c2sccc21 (stereo not given)
IC50 [15]: 50 µM (inactive)

CN1C(=O)C(Cl)(Cl)C(=O)c2ccccc21
IC50 [16]: 34.5 µM (active) | IC50 [17]: 2.75 µM (active)

Oc1ccccc1-c1nnc(SCCN2CCOCC2)n1Cc1ccccc1
EC50 [6]: 9.74 µM (active) | EC50 [8]: 8.21 µM (active) | EC50 [9]: 7.29 µM (active) | IC50 (Estrogen receptor beta [18]): 3.51 µM (active) | IC50 (Estrogen receptor beta [19]): < 0.023 µM (not active)

CC1CCCCC1NC(=O)/C(C#N)=C/C=C/c1ccccc1[N+](=O)[O-] (stereo not given)
EC50 (HEK293 [20]): > 20 µM (inactive) | IC50 (HEK293 [21]): 3.59 µM (active) | IC50 (HEK293 [22]): > 20 µM (inactive) | EC50 [23]: > 20 µM (inactive) | IC50 (HEK293 [24]): 4.85 µM (inactive) | IC50 (HEK293 [25]): > 20 µM (inactive) | AC50 [11]: 7.92 µM (active) | IC50 (Vero [26]): 13.3 µM (active) | AC50 (A-375 [13]): 31.9 µM (active) | CC50 (Vero [27]): 15.6 µM (active)
